# According to ChEMBL document CHEMBL1914315, “Fijimycins A-C, three antibacterial etamycin-class depsipeptides from a marine-derived Streptomyces sp” (2011):
# Tests used:
# Assay type in all cases: functional
# [1] = test system: Staphylococcus aureus; test: Antimicrobial activity against methicillin-resistant Staphylococcus aureus ATCC 33591; settings: read-out: MIC100
# [2] = test system: Staphylococcus aureus; test: Antimicrobial activity against methicillin-resistant Staphylococcus aureus UAMS 1182; settings: read-out: MIC100
# [3] = test system: Staphylococcus aureus; test: Antimicrobial activity against methicillin-resistant Staphylococcus aureus Sanger 252; settings: Sanger 252, read-out: MIC100
smiles,measurement,setting,value
CC(C)C[C@H]1NC(=O)[C@@H](NC(=O)c2ncccc2O)[C@@H](C)OC(=O)[C@@H](c2ccccc2)N(C)C(=O)[C@H](C)NC(=O)[C@H](C(C)C(C)C)N(C)C(=O)CN(C)C(=O)[C@H]2C[C@@H](O)CN2C1=O (stereo not given in full) [FIJIMYCIN A],MIC,[1],16 µg/mL
same,MIC,[2],4 µg/mL
same,MIC,[3],32 µg/mL
CC(C)C[C@H]1NC(=O)[C@@H](NC(=O)c2ncccc2O)[C@@H](C)OC(=O)[C@H](CC(C)C)N(C)C(=O)[C@H](C)NC(=O)[C@H](C(C)C(C)C)N(C)C(=O)CN(C)C(=O)[C@H]2C[C@@H](O)CN2C1=O (stereo not given in full) [FIJIMYCIN B],MIC,[1],> 32 µg/mL
same,MIC,[2],> 32 µg/mL
CC(C)C[C@H]1NC(=O)[C@@H](NC(=O)c2ncccc2O)[C@@H](C)OC(=O)[C@H](c2ccccc2)N(C)C(=O)[C@H](CO)NC(=O)[C@H](C(C)C(C)C)N(C)C(=O)CN(C)C(=O)[C@H]2C[C@@H](O)CN2C1=O (stereo not given in full) [FIJIMYCIN C],MIC,[1],32 µg/mL
same,MIC,[2],8 µg/mL
CC(C)C[C@H]1NC(=O)[C@@H](NC(=O)c2ncccc2O)[C@@H](C)OC(=O)[C@H](c2ccccc2)N(C)C(=O)[C@H](C)NC(=O)[C@H](C(C)C(C)C)N(C)C(=O)CN(C)C(=O)[C@H]2C[C@@H](O)CN2C1=O (stereo not given in full) [VIRIFOGRISEIN I],MIC,[1],16 µg/mL
same,MIC,[2],4 µg/mL
same,MIC,[3],16 µg/mL
